Reference: ChEMBL document CHEMBL4270673, “Receptor-Ligand Interaction Measured by Inductively Coupled Plasma Mass Spectrometry and Selenium Labeling” (J Med Chem, 2018)
Where a SMILES comes first, the peptide text is derived from it. [ ]: non-standard residue; d: D form. The star is where a group is joined. SeMet = C[Se]CC[C@H](N)C(=O)O; X1 = O=C(C[Se]c1ccccc1)*; Ahx = NCCCCCC(=O)O

Columns and labels:
Vasopressin V1a receptor [1] = target: T1, Vasopressin V1a receptor (Homo sapiens, UniProt P37288); test: Displacement of [Se-Se]-AVP from human V1A receptor expressed in CHO cells after 4 hrs by RP-LC-ICPMS analysis; assay type: cell-based
Target sequence in this assay (P37288 whole entry): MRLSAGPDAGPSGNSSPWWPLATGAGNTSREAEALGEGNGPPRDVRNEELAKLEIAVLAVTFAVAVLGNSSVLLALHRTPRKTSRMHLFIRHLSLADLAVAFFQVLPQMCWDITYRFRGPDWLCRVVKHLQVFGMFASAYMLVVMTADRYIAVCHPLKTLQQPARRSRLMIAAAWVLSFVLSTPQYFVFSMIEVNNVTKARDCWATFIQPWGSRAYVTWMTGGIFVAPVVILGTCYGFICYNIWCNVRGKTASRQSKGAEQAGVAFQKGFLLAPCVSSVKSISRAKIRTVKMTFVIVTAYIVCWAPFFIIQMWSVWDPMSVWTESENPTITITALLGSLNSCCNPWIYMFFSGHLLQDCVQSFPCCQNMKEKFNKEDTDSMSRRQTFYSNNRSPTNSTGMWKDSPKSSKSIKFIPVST

Vasopressin V1a receptor [2] = target: T1, Vasopressin V1a receptor; test: Displacement of [125I]OH-Phpa-LVA from human V1A receptor expressed in CHO cells after 4 hrs by gamma counter analysis; assay type: cell-based
Target sequence in this assay (P37288 whole entry): as above

Vasopressin V1a receptor [3] = target: T1, Vasopressin V1a receptor; test: Binding affinity to human V1A receptor expressed in CHO cell membranes
Target sequence in this assay (P37288 whole entry): as above

[4] = target: T2, Gastrin/cholecystokinin type B receptor (Homo sapiens, UniProt P32239); test: Displacement of non-sulfated CCK-8 from CCKB receptor (unknown origin) expressed in HEK cells after 4 hrs by RP-LC-ICPMS analysis; assay type: cell-based
T2 sequence (P32239 whole entry): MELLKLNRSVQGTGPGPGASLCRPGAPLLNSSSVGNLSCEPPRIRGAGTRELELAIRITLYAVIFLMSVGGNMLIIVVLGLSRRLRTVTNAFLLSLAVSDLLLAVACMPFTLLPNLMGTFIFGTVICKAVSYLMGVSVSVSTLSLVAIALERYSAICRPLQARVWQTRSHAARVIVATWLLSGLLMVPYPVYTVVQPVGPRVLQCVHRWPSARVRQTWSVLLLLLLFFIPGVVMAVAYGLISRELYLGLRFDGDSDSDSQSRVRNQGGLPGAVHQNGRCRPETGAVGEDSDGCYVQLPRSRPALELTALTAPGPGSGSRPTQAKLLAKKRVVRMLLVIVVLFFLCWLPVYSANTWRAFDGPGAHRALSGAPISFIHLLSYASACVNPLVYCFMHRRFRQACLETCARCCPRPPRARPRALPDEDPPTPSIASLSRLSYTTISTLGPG

[5] = target: T2, Gastrin/cholecystokinin type B receptor; test: Binding affinity to CCKB receptor (unknown origin) expressed in HEK cells after 4 hrs by RP-LC-ICPMS analysis; assay type: cell-based
Vasopressin V1a receptor [6] = target: T1, Vasopressin V1a receptor; test: Binding affinity to human V1A receptor expressed in CHO cells assessed per million cells after 4 hrs by RP-LC-ICPMS analysis; assay type: cell-based
Target sequence in this assay (P37288 whole entry, looked up): as the sequence (P37288 whole entry) above

Vasopressin V1a receptor [7] = target: T1, Vasopressin V1a receptor; test: Displacement of [Sez6]-HO-Phpa-LVA from human V1A receptor expressed in CHO cells after 4 hrs by RP-LC-ICPMS analysis; assay type: cell-based
Target sequence in this assay (P37288 whole entry): as the sequence (P37288 whole entry) above

Vasopressin V1a receptor [8] = target: T1, Vasopressin V1a receptor; test: Binding affinity to human V1A receptor expressed in CHO cells after 4 hrs by RP-LC-ICPMS analysis; assay type: cell-based
Target sequence in this assay (P37288 whole entry): as the sequence (P37288 whole entry) above

Vasopressin V1a receptor [9] = target: T1, Vasopressin V1a receptor; test: Displacement of [Ph-Se-acetyl]-LVA from human V1A receptor expressed in CHO cells after 4 hrs by RP-LC-ICPMS analysis; assay type: cell-based
Target sequence in this assay (P37288 whole entry): as the sequence (P37288 whole entry) above

| Compound | Ki (Vasopressin V1a receptor [1]) [nM] | Ki (Vasopressin V1a receptor [2]) [nM] | Bmax (Vasopressin V1a receptor [6]) [fmol] | other results |
| --- | --- | --- | --- | --- |
| N=C(N)NCCC[C@H](NC(=O)[C@@H]1CCCN1C(=O)[C@@H]1C[Se][Se]C[C@H](N)C(=O)N[C@@H](Cc2ccc(O)cc2)C(=O)N[C@@H](Cc2ccccc2)C(=O)N[C@@H](CCC(N)=O)C(=O)N[C@@H](CC(N)=O)C(=O)N1)C(=O)NCC(N)=O | 1.7 | 0.7 |  | Kd (Vasopressin V1a receptor [3]): 0.6 to 3 nM |
| COc1ccc(C[C@@H](NC(=O)CCc2ccc(O)cc2)C(=O)N[C@@H](Cc2ccccc2)C(=O)N[C@@H](CCC(N)=O)C(=O)N[C@@H](CC(N)=O)C(=O)N[C@@H](CCCNC(=N)N)C(=O)N2CCC[C@H]2C(=O)N[C@@H](CCCNC(=N)N)C(N)=O)cc1 | 0.2 | 0.8 |  |  |
| CSCC[C@H](NC(=O)[C@H](Cc1c[nH]c2ccccc12)NC(=O)CCCCCNC(=O)[C@H](CCCNC(=N)N)NC(=O)[C@H](CC[Se]C)NC(C)=O)C(=O)N[C@@H](CC(=O)O)C(=O)N[C@@H](Cc1ccccc1)C(N)=O (Ac-[SeMet]R[Ahx]WMDF-NH2) |  |  |  | Ki [4]: 3.91 nM; Kd [5]: 45.5 nM |
| CCOc1ccc2c(c1)[C@]1(CC[C@H](OCCN3CCOCC3)CC1)C(=O)N2S(=O)(=O)c1ccc(C(=O)NC(C)(C)C)cc1OC | 2950 | 304 |  |  |
| CSCC[C@H](NC(=O)[C@H](Cc1c[nH]c2ccccc12)NC(=O)CCCCCNC(=O)[C@H](CCCNC(=N)N)NC(=O)C[Se]c1ccccc1)C(=O)N[C@@H](CC(=O)O)C(=O)N[C@@H](Cc1ccccc1)C(N)=O (X1-R[Ahx]WMDF-NH2) |  |  |  | Ki [4]: 7.93 nM; Kd [5]: 29.3 nM |
| N=C(N)NCCC[C@@H](NC(=O)[C@@H]1CCCN1C(=O)[C@@H]1C[Se][Se]C[C@H](N)C(=O)N[C@@H](Cc2ccc(O)cc2)C(=O)N[C@@H](Cc2ccccc2)C(=O)N[C@@H](CCC(N)=O)C(=O)N[C@@H](CC(N)=O)C(=O)N1)C(=O)NCC(N)=O |  |  | 1060 |  |
| COc1ccc(C[C@@H](NC(=O)CCc2ccc(O)cc2)C(=O)N[C@@H](Cc2ccccc2)C(=O)N[C@@H](CCC(N)=O)C(=O)N[C@@H](CC(N)=O)C(=O)N[C@@H](CCCNC(=N)N)C(=O)N2C[Se]C[C@H]2C(=O)N[C@@H](CCCNC(=N)N)C(N)=O)cc1 | 0.4 | 0.9 | 845 | Ki (Vasopressin V1a receptor [7]): 3.8 nM; Kd (Vasopressin V1a receptor [8]): 0.45 nM |
| N=C(N)NCCC[C@H](NC(=O)[C@@H]1CCCN1C(=O)[C@@H]1C[Se]C[C@H](N)C(=O)N[C@@H](Cc2ccc(O)cc2)C(=O)N[C@@H](Cc2ccccc2)C(=O)N[C@@H](CCC(N)=O)C(=O)N[C@@H](CC(N)=O)C(=O)N1)C(=O)NCC(N)=O |  | 1280 |  |  |
| COc1ccc(C[C@@H](NC(=O)C[Se]c2ccc(O)cc2)C(=O)N[C@@H](Cc2ccccc2)C(=O)N[C@@H](CCC(N)=O)C(=O)N[C@@H](CC(N)=O)C(=O)N[C@@H](CCCNC(=N)N)C(=O)N2CCC[C@H]2C(=O)N[C@@H](CCCNC(=N)N)C(N)=O)cc1 |  | 0.9 | 696 | Ki (Vasopressin V1a receptor [9]): 12.9 nM; Kd (Vasopressin V1a receptor [8]): 0.32 nM |
